Test results published in ChEMBL document CHEMBL6182874, “Discovery of phenylisoxazolidine analogs targeting receptor interacting protein kinase 1 with anti-inflammatory activity” (Eur J Med Chem, 2025).
The source made the active and inactive calls. The rule behind the calls is not given here.

Columns and labels:
Mus musculus [1] = assay: Protection against TNFalpha-induced SIRS C57BL/6J mouse assessed as histological change in lung at 1 to 10 mg/kg, ip pretreated with compound for 1 hr followed by TNF-alpha administration measured up to 72 hrs by H and E staining based analysis; assay type: functional, organism-based; conditions: dose 1-10 mg/kg, time 73.0 hrs
L929 [2] = assay: Anti-necroptosis activity against TZ-induced mouse L929 cells assessed as reduction in PI stained-positive cells pretreated with compound for 1 hr followed by TNF-alpha/z-VAD-fmk treatment by Hoechst 33342/PI double staining based analysis; assay type: functional, cell-based; conditions: dose 10-250 nM
HT-29 = assay: Inhibition of apoptosis in TS-induced human HT-29 cells up to 5 uM preincubated with compound for 1 hr followed by TNF-alpha/Smac mimic for 24 hrs by CCK8 assay; assay type: functional, cell-based; conditions: time 25.0 hrs
[3] = C0 in male Sprague-Dawley rat at 1 mg/kg, iv measured up to 1440 mins by LC-MS analysis; assay type: ADME, organism-based; conditions: in vivo
[4] = molecular target: T1, Receptor-interacting serine/threonine-protein kinase 1 (Mus musculus) (UniProt Q60855); assay: Inhibition of RIPK1 phosphorylation in TNF-alpha/z-VAD-fmk-induced mouse L929 cells at 250 nM measured up to 4 hrs by Western blotting analysis; assay type: cell-based
T1 sequence (whole entry): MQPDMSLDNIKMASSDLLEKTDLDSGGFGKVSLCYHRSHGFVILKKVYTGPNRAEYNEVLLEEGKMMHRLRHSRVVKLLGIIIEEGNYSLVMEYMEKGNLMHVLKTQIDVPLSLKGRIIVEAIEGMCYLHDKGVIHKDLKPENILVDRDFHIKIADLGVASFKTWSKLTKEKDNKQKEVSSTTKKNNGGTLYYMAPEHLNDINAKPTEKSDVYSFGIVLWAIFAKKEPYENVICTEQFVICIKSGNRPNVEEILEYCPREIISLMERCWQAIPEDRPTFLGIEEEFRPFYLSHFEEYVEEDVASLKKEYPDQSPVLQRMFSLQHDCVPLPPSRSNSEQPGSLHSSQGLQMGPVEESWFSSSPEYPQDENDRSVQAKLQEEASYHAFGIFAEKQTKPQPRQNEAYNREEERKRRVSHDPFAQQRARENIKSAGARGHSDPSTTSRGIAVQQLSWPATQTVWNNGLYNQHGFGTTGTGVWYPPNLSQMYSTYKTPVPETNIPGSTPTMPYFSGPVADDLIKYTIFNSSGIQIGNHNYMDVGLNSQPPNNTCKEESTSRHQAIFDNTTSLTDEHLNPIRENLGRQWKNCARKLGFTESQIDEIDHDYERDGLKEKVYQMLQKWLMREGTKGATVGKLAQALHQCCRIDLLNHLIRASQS

Mus musculus [5] = assay: Protection against TNFalpha-induced SIRS C57BL/6J mouse model assessed as survival rate at 1 to 10 mg/kg, ip pretreated with compound for 1 hr followed by TNF-alpha administration measured up to 72 hrs relative to control; assay type: functional; conditions: dose 1-10 mg/kg, time 73 hrs
Mus musculus [6] = assay: Protection against TNFalpha-induced SIRS C57BL/6J mouse assessed as histological change in spleen at 1 to 10 mg/kg, ip pretreated with compound for 1 hr followed by TNF-alpha administration measured up to 72 hrs by H and E staining based analysis; assay type: functional, organism-based; conditions: dose 1-10 mg/kg, time 73.0 hrs
Mus musculus [7] = assay: Protection against TNFalpha-induced SIRS C57BL/6J mouse assessed as reduction in IL-6 level at 1 to 10 mg/kg, ip pretreated with compound for 1 hr followed by TNF-alpha administration measured up to 72 hrs; assay type: functional, organism-based; conditions: dose 1-10 mg/kg, time 73.0 hrs
L929 [8] = assay: Inhibition of ROS production in TNF-alpha/z-VAD-fmk-induced mouse L929 cells at 250 nM incubated for 4 hrs by DCFH-DA staining based analysis; assay type: functional, cell-based

In the case of `O=S(=O)(Cc1ccccc1)N1OCC[C@H]1c1ccccc1`, the Activity (Mus musculus [1]) is reported as “Active”, the Activity (L929 [2]) is reported as “Dose-dependent-effect” and the inhibition (HT-29) is reported as “inactive”. For the same compound, the C0 at 24 h [3] was 262 ng/mL, the inhibition [4] was “Active” and the Activity (Mus musculus [5]) was 85%. The Activity (Mus musculus [6]) was “Active”, the Activity (Mus musculus [7]) was “Active” and the inhibition (L929 [8]) was “inactive”.
